One data set relates to resting platelets. The experiment in a line: EQELS binding to resting platelets. Set-up: species or system human. To be noted: data not shown. The method, then:
Fresh gel-filtered platelets were used in all experiments. Blood from healthy donors was collected in acid-citrate-dextrose and prostacyclin (5 μg/mL, PGI2, Sigma Chemical Co., St. Louis, Mo.). Platelet-rich-plasma was obtained by centrifugation of the anticoagulated blood at 150 g for 15 minutes. […] Gel-filtered platelets were obtained from the application of washed platelets to a Sepharose CL-2B column (Pharamica Inc., Uppsala, Sweden) equilibrated with calcium-free albumin-free Tyrode's buffer. Platelets for light scattering experiments were suspended in buffer containing 20 mM NaCl, 265 mM sucrose, 2 mM HEPES, pH 7.4 and activated with human α-thrombin (0.2 NIH units/mL). See Li, X., Gabriel, D. A. The physical exchange of factor VIII (FVIII) between von Willebrand factor and activated platelets and the effect of the FVIII B-domain on platelet binding (1997) Biochem. J. 36, 10760-10767. […] EQELS spectra of the gel filtered platelets gave a single homogeneous mobility indicating the lack of microparticles. No change is observed in the platelet mobility spectrum on the addition of rFVIIa over the concentration range where rFVIIa would be expected to bind to tissue factor if it was present, indicating an absence of TF in the preparation. […]

The test system of data set [1] is activated platelet surface. To be noted: literature, read-out: Kd, binding to activated platelet surface, cited from earlier work.
The subject of a further data set is activated platelets. The experiment in a line: EQELS binding of proteins to thrombin-activated platelets. Also on record: species or system human. The procedure: Fresh gel-filtered platelets were used in all experiments. Blood from healthy donors was collected in acid-citrate-dextrose and prostacyclin (5 μg/mL, PGI2, Sigma Chemical Co., St. Louis, Mo.). Platelet-rich-plasma was obtained by centrifugation of the anticoagulated blood at 150 g for 15 minutes. […] Gel-filtered platelets were obtained from the application of washed platelets to a Sepharose CL-2B column (Pharamica Inc., Uppsala, Sweden) equilibrated with calcium-free albumin-free Tyrode's buffer. Platelets for light scattering experiments were suspended in buffer containing 20 mM NaCl, 265 mM sucrose, 2 mM HEPES, pH 7.4 and activated with human α-thrombin (0.2 NIH units/mL). See Li, X., Gabriel, D. A. The physical exchange of factor VIII (FVIII) between von Willebrand factor and activated platelets and the effect of the FVIII B-domain on platelet binding (1997) Biochem. J. 36, 10760-10767. […] EQELS spectra of the gel filtered platelets gave a single homogeneous mobility indicating the lack of microparticles. No change is observed in the platelet mobility spectrum on the addition of rFVIIa over the concentration range where rFVIIa would be expected to bind to tissue factor if it was present, indicating an absence of TF in the preparation.
Electrophoretic quasi-elastic light scattering offers the ability to monitor changes in the surface of blood cells resulting from cell activation and ligand binding. Gabriel, D. A., Reece, N., Witte, J., and Muga, K. Electrophoretic light scattering studies on the interaction of fibrinogen with resting and activated human platelets (1993) Blood Coagul. Fibrinolysis 4, 397-403; Johnson, C., and Gabriel, D. A. (1995) Laser Light Scattering, Dover, N.Y. The electrophoretic mobility of activated platelets changes when exposed to a known ligand and that the mobility change is the result of ligand binding. […] Under these experimental conditions, resting gel-filtered platelets have an electrophoretic mobility of −0.9 (μ-cm)/(volt-sec) and activated platelets have a mobility of −0.65(μ-cm)/(volt-sec). Loading the platelet surface with a ligand, such as a FIX or FVIII, changes the platelet electrophoretic mobility. While the absolute mobility varies slightly from donor to donor, there is minimal variation in a given donor. The dependence of the change in the platelet electrophoretic mobility on the addition of FIX permits calculation of the binding constant for FIX to the activated platelet. It is not the magnitude of the change in the platelet electrophoretic mobility, μ, that determines the binding constant, but how the change in μ depends on the concentration of the ligand FIX. The effect of ligand binding on the platelet mobility varies with the ligand, and is dependent on the extent of ligand binding, the extent of surface modification caused by ligand binding, and on the net charge of the ligand itself.
EQELS measurements were made on a multi-angle quasi-elastic light scattering spectrometer (DELSA 440, Coulter Electronics, Inc., Hialeah, Fla.). See Li, X., Gabriel, D. A. Biochem. J. 36, 10760-10767 (1997); Johnson, C., and Gabriel, D. A. (1995) Laser Light Scattering, Dover, N.Y.
Activated platelets and activated FVIII were prepared by activation with 0.2 NIH U/mL human α-thrombin for 5 minutes. After activation, residual thrombin was inactivated by addition of 2.5 μM phenylalanyl prolinyl arginine chloromethyl ketone (PPACK, Calbiochem, La Jolla, Calif.). FIX, FIXa, FVIIIa, and rFVIIa were incubated with platelets for 10 minutes before EQELS measurements.
The binding coefficient (Kd) of the proteins to platelets was determined by fitting the data from the binding experiment to:
[formula] where, μ is the electrophoretic mobility, μ0 is the mobility in the absence of added protein, Δμ is the calculated maximal change in mobility at the saturating concentration of protein. This model assumes one class of binding sites for the specific protein ligand on the platelets. […]

Data set [2] addresses T1, platelet-bound zymogen FIX (Homo sapiens, UniProt P00740).
T1 construct: made in house
The data set can be described thus: EQELS time and concentration dependence of zymogen FIX activation by rFVIIa on activated platelets. To be noted: FIX 10 nM. Type of data set: cell-based. The method, then:
FIG. 11A is a graph of the time and concentration dependence of rFVIIa on the activation of zymogen FIX. Platelets were activated with thrombin followed by inhibition of thrombin with PPACK. The activated platelets were then loaded with rFVIIa (0.075 nM, 1 nM, or 10 nM) and monitored as a function of time. The mobility at the initial time (zero) is the mobility for platelets loaded with zymogen FIX. […] Changes in the platelet mobility result from FIX activation.
Zymogen FIX at varying concentrations was added to the thrombin activated platelets that in some experiments included FVIIIa followed by a 10 minute incubation period. After this incubation period, rFVIIa was added to activated platelets coated with zymogen FIX. The EQELS spectrum was then obtained.
A decrease in the […] of FIX was used to detect activation of zymogen FIX by rFVIIa.

Data set [3] in a line: rFVIIa concentration after therapeutic infusion. It is filed as in vivo. To be noted: therapeutic infusion for a bleeding diathesis, estimated.
Another data set deals with T2, FIX (Homo sapiens, UniProt P00740).
T2 construct: made in house
T2 sequence (P00740 29-461 limits assumed): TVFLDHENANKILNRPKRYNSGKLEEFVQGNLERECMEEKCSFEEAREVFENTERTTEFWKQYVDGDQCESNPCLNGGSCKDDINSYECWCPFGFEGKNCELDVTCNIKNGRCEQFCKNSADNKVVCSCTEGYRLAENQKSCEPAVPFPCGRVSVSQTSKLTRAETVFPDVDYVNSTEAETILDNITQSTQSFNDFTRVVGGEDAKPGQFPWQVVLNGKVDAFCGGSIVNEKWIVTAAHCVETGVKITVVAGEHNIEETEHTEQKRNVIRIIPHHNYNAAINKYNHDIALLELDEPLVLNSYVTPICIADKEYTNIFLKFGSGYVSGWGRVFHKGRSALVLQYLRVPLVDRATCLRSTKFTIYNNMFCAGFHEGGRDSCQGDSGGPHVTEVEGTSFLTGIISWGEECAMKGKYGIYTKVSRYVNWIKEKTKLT
The experiment in a line: Functional (chromogenic) assay for activation of FIX on activated platelets. It is filed as biochemical. The method, then:
FIG. 12 is a graph illustrating the amount of FIX activated as a function of time and at different concentrations of rFVIIa (between 0 nM and 49 nM) for a chromogenic assay to show activation of FIX by rFVIIa in the absence of TF.
All assays were run in Tyrodes buffer with 2 mM CaCl2. Platelets were activated with 0.2 NIH units/ml of human α-thrombin for 10 minutes at 37° C. FVIII at 5 units/ml were included with the platelets and thrombin. Thrombin was neutralized with hirudin from a medium titrated against an α-thrombin standard. FVIIa at varying concentrations was added to the platelets for 10 minutes. Plasma concentrations of FIX at 80 nM were added and incubated for varied times. FIXa was assayed in a two stage assay. Platelets with activated FIX were incubated with plasma concentrations of FX for 5 minutes, then the amount of FXa was measured by adding plasma concentrations of prothrombin along with a […] (0.5 mM Perfachrome Th). […] Thrombin generation was measured as the change in the absorbance as the p-nitroanilide substrate was cleaved as a function of time. As expected, substrate cleavage fit a second order pattern and the rate of thrombin generation was determined from the first derivative of the absorbance versus time data.

Where [4] appears, read: 4 mM Ca++, 3 nM FVIIIa, read-out: Binding Coefficient (Kd), interaction with activated platelets.
[5] abbreviates: 4 mM Ca++, No FVIIIa, read-out: Binding Coefficient (Kd), interaction with activated platelets.

pKd: −log10 of the molar value. “And” between values parts separate entries of the source, which are not always exact repeats. Identical values can stand only once. Like-named read-outs stand apart in the source and are kept apart here.

T1 sequence (P00740 29-461 limits assumed): as above

For the substance Activated coagulation factor IX [FIXa], the “binding to resting platelets” value in the data set with resting platelets is listed as “do not bind”. The pKd in data set [1] (in the presence of rFVIIIa) was 9.22; in data set [1] (no rFVIIIa), 8.60; with activated platelets (setting [4]) it was 9.24; with activated platelets (setting [5]), 8.72; in the data set with activated platelets (4 mM calcium, 3 nM rFVIIIa, read-out: binding constant (Kd) to activated platelets), 9.24 and 9.22; with activated platelets (4 mM calcium, no rFVIIIa, read-out: binding constant (Kd) to activated platelets), 8.72 and 8.70. The “binding to activated platelets (change in platelet electrophoretic mobility)” value with activated platelets (absence of calcium) was “no binding”.

As for Coagulation factor IX [FIX], the “binding to resting platelets” value in the data set on resting platelets is on record as “do not bind”. Also, the pKd was 9.08 with activated platelets (10 nM rFVIIa, 4 mM calcium, 3 nM rFVIIIa, read-out: binding coefficient (Kd) for zymogen FIX to activated platelets in presence of rFVIIa); 8.79 and 8.80 in the data set with activated platelets (10 nM rFVIIa, 4 mM calcium, no rFVIIIa, 10 min incubation, read-out: binding coefficient (Kd) for zymogen FIX to activated platelets in presence of rFVIIa); 8.24 in the data set on activated platelets (setting [4]); 8.10 in the data set with activated platelets (setting [5]); 8.79 in the data set with activated platelets (FIX + FVIIa (10 nM), 4 mM Ca++, No FVIIIa, read-out: Binding Coefficient (Kd) for FIX in the presence of FVIIa, activated platelets).

Consider “Recombinant activated coagulation factor Vila [rFVIIa]”, for which the “activation of zymogen FIX by rFVIIa (EQELS)” value in data set [2] (0.075 nM rFVIIa, approximately 30 minutes) was “minimal activation”; in data set [2] (1 nM rFVIIa) it was “further activation”. Further, in data set [2] (10 nM rFVIIa), the “conversion of zymogen FIX to activated FIX by rFVIIa (EQELS)” value is listed as “still more rapid rate”. Moreover, in data set [3], the “concentration of rFVIIa after therapeutic infusion” value is on record as “approximately 30 nM”. For the same substance, in the data set on activated platelets (concentration range where rFVIIa would be expected to bind tissue factor), the “change in platelet mobility on addition of rFVIIa” value is “no change”. In addition, the “change in platelet surface charge” value with activated platelets (conditions identical to FIXa binding experiment) is on record as “does not change”. The “rFVIIa concentration at which it binds to platelets in the presence of FIX” value in the data set with activated platelets (in the presence of FIX) is recorded as at least 10 nM. Also, the “change in electrophoretic mobility of platelets on addition of rFVIIa” value in the data set with activated platelets (rFVIIa 0 to 40 nM) is reported as “did not change”. In addition, the “binding of rFVIIa to activated platelets” value with activated platelets (rFVIIa at 10 nM) was “does not bind”; in the data set with activated platelets (rFVIIa greater than 100 nM), “can be detected”; in the data set with activated platelets (rFVIIa range of 0.75 to 10 nM), “does not bind”. Moreover, in the data set with activated platelets (rFVIIa less than 100 nM, even in the presence of calcium), the “direct binding of rFVIIa to activated platelet surface” value is “no direct binding”. Further, the pKd in the data set on activated platelets (very high rFVIIa concentrations, absence of calcium (unpublished data), read-out: Kd of rFVIIa binding to platelets) is 6.60; in the data set with activated platelets (very high rFVIIa concentrations, presence of calcium (unpublished data), read-out: Kd of rFVIIa binding to platelets), 6.91. In addition, the “FXa and thrombin production” value at FIX (dependent on concentration of added rFVIIa, not shown in FIG. 12) is listed as “produced”. Moreover, the “activation of platelet-bound zymogen FIX (chromogenic assay)” value on FIX (rFVIIa 10, 20, 30, 40 nM, absence of TF) was “linear in time and directly proportional to the concentration of added rFVIIa”.

The values are drawn from US8551405B2, “Electrophoretic interactive spectral methods and devices for the detection and/or characterization of biological particles” (The University of North Carolina at Chapel Hill, priority 2004, dated 2013).
